{"source": "patent US10738028B2", "about": "“Spiro three-membered ring, spiro five-membered ring peptide deformylase inhibitor and use thereof in antibacteria and anti-tumor” (priority 2016, dated 2020)", "type_in_all_cases": "cell-based", "key": {"[1]": {"system": "Streptococcus pneoumoniae (SPN)", "test": "MIC, two-fold agar dilution (CLSI), clinical isolates", "excerpt": "(§1) 1. The invention adopts the two-fold agar dilution method recommended by the operating procedure of antimicrobial susceptibility testing set by American Clinical and Laboratory Standards Institute (CLSI) to determine the Minimum Inhibitory Concentration (MIC) of the test samples against the tested strains."}, "[2]": {"system": "Enterococcus faecium (EFM)", "test": "MIC, two-fold agar dilution (CLSI), clinical isolates", "excerpt": "as §1"}, "[3]": {"system": "methicillin-sensitive Staphylococcus aureus (MSSA)", "test": "MIC, two-fold agar dilution (CLSI), clinical isolates", "excerpt": "as §1"}, "[4]": {"system": "Moraxella catarrhalis (BCA)", "test": "MIC, two-fold agar dilution (CLSI), clinical isolates", "excerpt": "as §1"}, "[5]": {"system": "methicillin-resistant Staphylococcus epidermidis (MRSE)", "test": "MIC, two-fold agar dilution (CLSI), clinical isolates", "excerpt": "as §1"}, "[6]": {"system": "methicillin-resistant Staphylococcus aureus (MRSA)", "test": "MIC, two-fold agar dilution (CLSI), clinical isolates", "excerpt": "as §1"}, "[7]": {"system": "Enterococcus faecalis (EFA)", "test": "MIC, two-fold agar dilution (CLSI), clinical isolates", "excerpt": "as §1"}, "[8]": {"system": "methicillin-sensitive Staphylococcus epidermidis (MSSE)", "test": "MIC, two-fold agar dilution (CLSI), clinical isolates", "excerpt": "as §1"}, "[9]": {"system": "Escherichia coli (including ESBLs, non-ESBLs)", "test": "MIC, two-fold agar dilution (CLSI), clinical isolates", "excerpt": "as §1"}, "[10]": {"system": "HCT-116 colorectal cancer cell line", "test": "CCK-8 proliferation inhibition", "conditions": "Homo sapiens, HCT-116, 72 h, concentration of 30 μM; 72 hours; CCK-8; read-out: HCT116 inhibition rate/%", "experimental": "(1) HCT-116 colorectal cancer cell line, A549 lung cancer cell line, MGC-803 gastric cancer cell line, BEL-7402 liver cancer cell line, Jurkat T cell leukemia cell line, HL60 acute myeloid leukemia cell line, Hela cervical cancer cell line, MCF-7 breast cancer cell line, PC3 prostate cancer cell line and SAOS-2 osteosarcoma cell line were made into single cell suspension, 180 μL of which was inoculated into 96-well culture plate, which was cultured overnight in CO2 incubator (37° C., 5% CO2, 95% air).\n(2) Each of the spiro three-membered ring, spiro five membered ring peptide deformylase inhibitors was dissolved in DMSO, and was further formulated into drug solution with required different final concentration using corresponding cell culture medium. The drug solutions were added to the above cells respectively (20 μL/well), with the control group added with 1‰ DMSO, and cultured in a CO2 incubator for 72 hours.\n(3) After incubation for 72 hours, the culture solution was decanted, and 100 μL of 1:10 diluted CCK-8 solution was added.\nWherein, in step (1), the concentration of the single cell suspension was 2000 cells/well.\nWherein, in step (2), HCT-116 cells were cultured in McCoy's 5A medium (containing 10% newborn bovine serum, 1% double antibody); A549 and PC3 cells were cultured in F12 medium (containing 10% newborn bovine serum, 1% double antibody); MGC-803, BEL-7402, SAOS-2, Jurkat and HL60 cells were cultured in 1640 medium (containing 10% newborn bovine serum, 1% double antibody); and MCF-7 and Hela cells were cultured in DMEM high glucose medium (containing 10% newborn bovine serum, 1% double antibody)."}}}
{"compound": "CCCC[C@H](CN(O)C=O)C(=O)N1CC2(CC2)C[C@H]1C(=O)Nc1ccno1", "note": "[Example 17]", "values": [{"measurement": "MIC (anti-bacterial activity)", "setting": "[1]; strain SPN 16-2", "result": 8, "unit": "µg/mL"}, {"measurement": "MIC (anti-bacterial activity)", "setting": "[1]; strain SPN 16-4", "result": 1, "unit": "µg/mL"}, {"measurement": "MIC (anti-bacterial activity)", "setting": "[2]; strain EFM 15-1", "result": 1, "unit": "µg/mL"}, {"measurement": "MIC (anti-bacterial activity)", "setting": "[2]; strain EFM 15-2", "result": 2, "unit": "µg/mL"}, {"measurement": "MIC (anti-bacterial activity)", "setting": "[2]; strain EFM 15-3", "result": 0.5, "unit": "µg/mL"}, {"measurement": "MIC (anti-bacterial activity)", "setting": "[2]; strain EFM 15-4", "result": 2, "unit": "µg/mL"}, {"measurement": "MIC (anti-bacterial activity)", "setting": "[2]; strain EFM 15-5", "result": 1, "unit": "µg/mL"}, {"measurement": "MIC (anti-bacterial activity)", "setting": "[2]; strain EFM 15-6", "result": 2, "unit": "µg/mL"}, {"measurement": "MIC (anti-bacterial activity)", "setting": "[3]; strain MSSA 15-3", "result": 1, "unit": "µg/mL"}, {"measurement": "MIC (anti-bacterial activity)", "setting": "[3]; strain MSSA 15-4", "result": 1, "unit": "µg/mL"}, {"measurement": "MIC (anti-bacterial activity)", "setting": "[3]; strain MSSA 15-5", "result": 0.25, "unit": "µg/mL"}, {"measurement": "MIC (anti-bacterial activity)", "setting": "[3]; strain MSSA 15-6", "result": 1, "unit": "µg/mL"}, {"measurement": "MIC (anti-bacterial activity)", "setting": "[4]; strain BCA 14-1", "result": 4, "unit": "µg/mL"}, {"measurement": "MIC (anti-bacterial activity)", "setting": "[4]; strain BCA 14-4", "result": 2, "unit": "µg/mL"}, {"measurement": "MIC (anti-bacterial activity)", "setting": "[4]; strain BCA 14-5", "result": 1, "unit": "µg/mL"}, {"measurement": "MIC (anti-bacterial activity)", "setting": "[4]; strain BCA 14-6", "result": 2, "unit": "µg/mL"}, {"measurement": "MIC (anti-bacterial activity)", "setting": "[4]; strain BCA 14-7", "result": 1, "unit": "µg/mL"}, {"measurement": "MIC (anti-bacterial activity)", "setting": "[4]; strain BCA 14-8", "result": 2, "unit": "µg/mL"}, {"measurement": "MIC (anti-bacterial activity)", "setting": "[4]; strain BCA 14-10", "result": 1, "unit": "µg/mL"}, {"measurement": "MIC (anti-bacterial activity)", "setting": "[5]; strain MRSE 15-1", "result": 0.25, "unit": "µg/mL"}, {"measurement": "MIC (anti-bacterial activity)", "setting": "[5]; strain MRSE 15-2", "result": 0.5, "unit": "µg/mL"}, {"measurement": "MIC (anti-bacterial activity)", "setting": "[5]; strain MRSE 15-3", "result": 0.5, "unit": "µg/mL"}, {"measurement": "MIC (anti-bacterial activity)", "setting": "[5]; strain MRSE 15-7", "result": 1, "unit": "µg/mL"}, {"measurement": "MIC (anti-bacterial activity)", "setting": "[6]; strain MRSA 15-1", "result": 1, "unit": "µg/mL"}, {"measurement": "MIC (anti-bacterial activity)", "setting": "[6]; strain MRSA 15-2", "result": 1, "unit": "µg/mL"}, {"measurement": "MIC (anti-bacterial activity)", "setting": "[6]; strain MRSA 15-3", "result": 1, "unit": "µg/mL"}, {"measurement": "MIC (anti-bacterial activity)", "setting": "[6]; strain MRSA 15-4", "result": 1, "unit": "µg/mL"}, {"measurement": "MIC (anti-bacterial activity)", "setting": "[7]; strain EFA 15-1", "result": 8, "unit": "µg/mL"}, {"measurement": "MIC (anti-bacterial activity)", "setting": "[7]; strain EFA 15-2", "result": 8, "unit": "µg/mL"}, {"measurement": "MIC (anti-bacterial activity)", "setting": "[7]; strain EFA 15-3", "result": 2, "unit": "µg/mL"}, {"measurement": "MIC (anti-bacterial activity)", "setting": "[7]; strain EFA 15-4", "result": 8, "unit": "µg/mL"}, {"measurement": "MIC (anti-bacterial activity)", "setting": "[7]; strain EFA 15-5", "result": 8, "unit": "µg/mL"}, {"measurement": "MIC (anti-bacterial activity)", "setting": "[7]; strain EFA 15-6", "result": 8, "unit": "µg/mL"}, {"measurement": "MIC (anti-bacterial activity)", "setting": "[7]; strain EFA 15-9", "result": 8, "unit": "µg/mL"}, {"measurement": "MIC (anti-bacterial activity)", "setting": "[8]; strain MSSE 15-3", "result": 1, "unit": "µg/mL"}, {"measurement": "MIC (anti-bacterial activity)", "setting": "[8]; strain MSSE 15-4", "result": 0.5, "unit": "µg/mL"}, {"measurement": "MIC (anti-bacterial activity)", "setting": "[8]; strain MSSE 15-5", "result": 0.5, "unit": "µg/mL"}, {"measurement": "MIC (anti-bacterial activity)", "setting": "[8]; strain MSSE 15-6", "result": 0.25, "unit": "µg/mL"}, {"measurement": "MIC (anti-bacterial activity)", "setting": "[9]; strain ECO+ 15-1", "result": 32, "unit": "µg/mL"}, {"measurement": "MIC (anti-bacterial activity)", "setting": "[9]; strain ECO+ 15-2", "result": 32, "unit": "µg/mL"}, {"measurement": "MIC (anti-bacterial activity)", "setting": "[9]; strain ECO+ 15-3", "result": "> 32", "unit": "µg/mL"}, {"measurement": "MIC (anti-bacterial activity)", "setting": "[9]; strain ECO+ 15-4", "result": "> 32", "unit": "µg/mL"}, {"measurement": "MIC (anti-bacterial activity)", "setting": "[9]; strain ECO− 15-1", "result": 16, "unit": "µg/mL"}, {"measurement": "MIC (anti-bacterial activity)", "setting": "[9]; strain ECO− 15-2", "result": 32, "unit": "µg/mL"}, {"measurement": "MIC (anti-bacterial activity)", "setting": "[9]; strain ECO− 15-3", "result": "> 32", "unit": "µg/mL"}, {"measurement": "MIC (anti-bacterial activity)", "setting": "[9]; strain ECO− 15-4", "result": 32, "unit": "µg/mL"}, {"measurement": "inhibition at 30 µM", "setting": "[10]", "result": 13, "unit": "%"}]}
